Data published in patent US20220378706A1, “PHARMACEUTICAL COMPOSITION COMPRISING PDE9 INHIBITOR” (Eisai R&D Management Co., Ltd., priority 2017, published 2022).

Test system: CSF cGMP
Assay: Single dose clinical study Part B: CSF cGMP pharmacodynamics
Type: in vivo, human
Conditions: for CSF cGMP Amax Mean (SD) / CSF cGMP TAmax Median / CSF cGMP ΔAUAC(0-30 h) Mean (SD): healthy adults Part B, fasted
Method: After the Screening Period, subjects returned to the clinic on […] for Baseline procedures. […] Serial CSF sampling via the lumbar catheter commenced on Day 1, after an overnight fast. CSF samples were collected on Day 1 over a period of 3 hours predose. Subjects were then administered study drug, and serial CSF sampling for 30 hours postdose was performed to determine CSF cGMP and CSF Compound A concentrations. Blood samples for plasma Compound A PK were collected at the same time points as CSF sampling. Safety evaluations were also performed.
Serial CSF samples were collected from the lumbar catheter for analysis of concentrations of cyclic […] monophosphate (cGMP) at −3, −2, −1 hours, predose (0 hour), and postdose at 1, 2, 3, 4, 5, 6, 8, 10, 12, 14, 16, 18, 24, and 30 hours.
Plasma, urine and CSF concentrations of Compound A were measured using validated liquid chromatography mass spectrometry/mass spectrometry (LC MS/MS) assay methods. CSF concentrations of cGMP were measured using a validated LC-MS/MS assay method.
The primary PD measure was CSF cGMP. The following PD parameters were reported for CSF cGMP:
Plasma Compound A concentrations pooled from all cohorts of the study were subjected to population PK analysis using nonlinear mixed effects modelling. The effect of covariates, such as baseline demographics/characteristics (eg, body weight, age, gender, ethnicity, etc) on the PK of Compound A were explored. The individual posterior estimates of PK parameters were then used to generate individual PK profiles of Compound A, which were used in subsequent PK/PD analysis of the percent change from baseline in CSF cGMP concentrations.

## COc1ncc(C)c(-c2ccc3c(c2)[nH]c(=O)c2cnn([C@H]4CCOC4)c23)c1C [Compound A, (S)-7-(2-methoxy-3,5-dimethylpyridin-4-yl)-1-(tetrahydrofuran-3-yl)-1H-pyrazolo[4,3-c]quin olin-4(5H)-one]
100 mg administered to steady state
  sustained CSF cGMP increase from baseline predicted from PK/PD modeling: approximately 200%
Single oral 50 mg
  CSF cGMP Amax Mean (SD): 367 (92.6) %
  CSF cGMP TAmax Median: 7.87 h
  CSF cGMP ΔAUAC(0-30 h) Mean (SD): 117 (51.7) %
Single oral 75 mg
  CSF cGMP Amax Mean (SD): 461 (86.3) %
  CSF cGMP TAmax Median: 5.87 h
  CSF cGMP ΔAUAC(0-30 h) Mean (SD): 166 (9.61) %
Single oral 100 mg
  CSF cGMP Amax Mean (SD): 293 (67.8) %
  CSF cGMP TAmax Median: 5.87 h
  CSF cGMP ΔAUAC(0-30 h) Mean (SD): 87.0 (33.9) %
Single oral 200 mg
  CSF cGMP Amax Mean (SD): 424 (127) %
  CSF cGMP TAmax Median: 5.37 h
  CSF cGMP ΔAUAC(0-30 h) Mean (SD): 176 (89.5) %
Single oral 400 mg
  CSF cGMP Amax Mean (SD): 420 (123) %
  CSF cGMP TAmax Median: 12.9 h
  CSF cGMP ΔAUAC(0-30 h) Mean (SD): 214 (82.3) %
